Results reported in ChEMBL document CHEMBL3232804, “Synthesis and evaluation of new diaryl ether and quinoline hybrids as potential antiplasmodial and antimicrobial agents” (Bioorg Med Chem Lett, 2014).
≈ marks a conversion by molar mass, not a printed value.

Assays:
Plasmodium falciparum [1] = assay: Antiplasmodial activity against chloroquine-sensitive Plasmodium falciparum 3D7 infected after 72 hrs by Malaria SYBR Green I-staining based fluorescence assay; assay type: functional, organism-based; conditions: 3D7, 72 h
Plasmodium falciparum [2] = assay: Antiplasmodial activity against chloroquine-resistant Plasmodium falciparum K1 infected after 72 hrs by Malaria SYBR Green I-staining based fluorescence assay; assay type: functional, organism-based; conditions: K1, 72 h
[3] = Selectivity index, ratio of IC50 for african green monkey Vero cells to IC50 for chloroquine-sensitive Plasmodium falciparum 3D7; assay type: toxicity, cell-based; conditions: read-out: Ratio IC50
Escherichia coli = assay: Antimicrobial activity against Escherichia coli ATCC 9637 after 24 hrs by standard broth microdilution method; assay type: functional; conditions: ATCC 9637, 24 h
Pseudomonas aeruginosa = assay: Antimicrobial activity against Pseudomonas aeruginosa ATCC BAA-427 after 24 hrs by standard broth microdilution method; assay type: functional; conditions: ATCC BAA-427, 24 h
Staphylococcus aureus = assay: Antimicrobial activity against Staphylococcus aureus ATCC 25923 after 24 hrs by standard broth microdilution method; assay type: functional; conditions: ATCC 25923, 24 h
Klebsiella pneumoniae = assay: Antimicrobial activity against Klebsiella pneumoniae ATCC 27736 after 24 hrs by standard broth microdilution method; assay type: functional; conditions: ATCC 27736, 24 h
Candida albicans = assay: Antifungal activity against Candida albicans clinical isolate after 24 to 48 hrs by standard broth microdilution method; assay type: functional
Cryptococcus neoformans = assay: Antifungal activity against Cryptococcus neoformans clinical isolate after 24 to 48 hrs by standard broth microdilution method; assay type: functional
Sporothrix schenckii = assay: Antifungal activity against Sporothrix schenckii clinical isolate after 72 to 96 hrs by standard broth microdilution method; assay type: functional
[4] = test system: Trichophyton mentagrophytes; assay: Antifungal activity against Trichophyton mentagrophytes clinical isolate after 72 to 96 hrs by standard broth microdilution method; assay type: functional
Aspergillus fumigatus = assay: Antifungal activity against Aspergillus fumigatus clinical isolate after 72 to 96 hrs by standard broth microdilution method; assay type: functional
Candida parapsilosis = assay: Antifungal activity against Candida parapsilosis ATCC […] after 72 to 96 hrs by standard broth microdilution method; assay type: functional; conditions: Lodderomyces parapsilosis

Row | Compound | IC50 (Plasmodium falciparum [1]) | IC50 (Plasmodium falciparum [2]) | selectivity ratio [3] | MIC (Escherichia coli) | MIC (Pseudomonas aeruginosa) | MIC (Staphylococcus aureus) | MIC (Klebsiella pneumoniae) | MIC (Candida albicans) | MIC (Cryptococcus neoformans) | MIC (Sporothrix schenckii) | MIC [4] | MIC (Aspergillus fumigatus) | MIC (Candida parapsilosis)
1 | COC(=O)/C(C)=C/c1ccc(Oc2ccccc2N/C(=N/c2ccccc2)NCCCCNc2ccnc3cc(Cl)ccc23)cc1 | 287 nM | 141 nM | 78 | > 50 µg/mL | > 50 µg/mL | > 50 µg/mL | > 50 µg/mL | > 50 µg/mL | > 50 µg/mL | > 50 µg/mL | > 50 µg/mL | > 50 µg/mL | > 50 µg/mL
2 | COc1ccc(Oc2ccc(N/C(=N/c3ccc(Cl)cc3)NCCCNc3ccnc4cc(Cl)ccc34)cc2)cc1 | 204 nM | > 800 nM | 82.1 | 12.5 µg/mL (≈ 21.3 µM) | > 50 µg/mL | 12.5 µg/mL (≈ 21.3 µM) | 50 µg/mL (≈ 85.2 µM) | 50 µg/mL (≈ 85.2 µM) | 50 µg/mL (≈ 85.2 µM) | 25 µg/mL (≈ 42.6 µM) | 25 µg/mL (≈ 42.6 µM) | 50 µg/mL (≈ 85.2 µM) | 25 µg/mL (≈ 42.6 µM)
3 | COc1ccc(Oc2ccc(N/C(=N/c3ccccc3)NCCCNc3ccnc4cc(Cl)ccc34)cc2)cc1 | 36.6 nM | 680 nM | 97.8 | 6.25 µg/mL (≈ 11.3 µM) | > 50 µg/mL | 6.25 µg/mL (≈ 11.3 µM) | 12.5 µg/mL (≈ 22.6 µM) | 25 µg/mL (≈ 45.3 µM) | 25 µg/mL (≈ 45.3 µM) | 12.5 µg/mL (≈ 22.6 µM) | 12.5 µg/mL (≈ 22.6 µM) | 25 µg/mL (≈ 45.3 µM) | 12.5 µg/mL (≈ 22.6 µM)
4 | COC(=O)/C(C)=C/c1ccc(Oc2ccc(N/C(=N/c3ccccc3)NCCNc3ccnc4cc(Cl)ccc34)cc2)cc1 | 70.3 nM | 65.9 nM | 158 | 12.5 µg/mL (≈ 20.6 µM) | > 50 µg/mL | 25 µg/mL (≈ 41.2 µM) | > 50 µg/mL | 1.52 µg/mL (≈ 2.51 µM) | 12.5 µg/mL (≈ 20.6 µM) | 12.5 µg/mL (≈ 20.6 µM) | 6.25 µg/mL (≈ 10.3 µM) | 25 µg/mL (≈ 41.2 µM) | 12.5 µg/mL (≈ 20.6 µM)
5 | COC(=O)/C(C)=C/c1ccc(Oc2ccccc2N/C(=N/c2cccc(Cl)c2)NCCNc2ccnc3cc(Cl)ccc23)cc1 | 34.9 nM | 489 nM | 234 | 50 µg/mL (≈ 78.1 µM) | > 50 µg/mL | 3.12 µg/mL (≈ 4.87 µM) | 3.12 µg/mL (≈ 4.87 µM) | 25 µg/mL (≈ 39 µM) | 25 µg/mL (≈ 39 µM) | 25 µg/mL (≈ 39 µM) | 25 µg/mL (≈ 39 µM) | 50 µg/mL (≈ 78.1 µM) | 25 µg/mL (≈ 39 µM)
6 | Clc1ccc(/N=C(\NCCNc2ccnc3cc(Cl)ccc23)Nc2ccccc2Oc2cc(Cl)ccc2Cl)cc1 | 58.1 nM | > 800 nM | 16.5 | 12.5 µg/mL (≈ 20.4 µM) | > 50 µg/mL | 6.25 µg/mL (≈ 10.2 µM) | > 50 µg/mL | 25 µg/mL (≈ 40.9 µM) | > 50 µg/mL | 25 µg/mL (≈ 40.9 µM) | 50 µg/mL (≈ 81.8 µM) | > 50 µg/mL | > 50 µg/mL
7 | COC(=O)/C(C)=C/c1ccc(Oc2ccc(N/C(=N/c3ccc(Cl)cc3)NCCNc3ccnc4cc(Cl)ccc34)cc2)cc1 | 43.1 nM | > 800 nM | 69.2 | 12.5 µg/mL (≈ 19.5 µM) | > 50 µg/mL | 6.25 µg/mL (≈ 9.76 µM) | 50 µg/mL (≈ 78.1 µM) | 6.25 µg/mL (≈ 9.76 µM) | 6.25 µg/mL (≈ 9.76 µM) | 6.25 µg/mL (≈ 9.76 µM) | 12.5 µg/mL (≈ 19.5 µM) | 25 µg/mL (≈ 39 µM) | 25 µg/mL (≈ 39 µM)
8 | COc1ccc(Oc2ccc(N/C(=N/c3ccccc3)NCCCCNc3ccnc4cc(Cl)ccc34)cc2)cc1 | 86 nM | 92.1 nM | 49 | 50 µg/mL (≈ 88.3 µM) | > 50 µg/mL | 6.25 µg/mL (≈ 11 µM) | 25 µg/mL (≈ 44.2 µM) | 12.5 µg/mL (≈ 22.1 µM) | 25 µg/mL (≈ 44.2 µM) | 12.5 µg/mL (≈ 22.1 µM) | 12.5 µg/mL (≈ 22.1 µM) | 25 µg/mL (≈ 44.2 µM) | 12.5 µg/mL (≈ 22.1 µM)
9 | COc1ccc(Oc2ccc(N/C(=N/c3cccc(Cl)c3)NCCCCNc3ccnc4cc(Cl)ccc34)cc2)cc1 | 75.7 nM | 147 nM | 61.2 | 25 µg/mL (≈ 41.6 µM) | > 50 µg/mL | 6.25 µg/mL (≈ 10.4 µM) | 25 µg/mL (≈ 41.6 µM) | 6.25 µg/mL (≈ 10.4 µM) | 12.5 µg/mL (≈ 20.8 µM) | 6.25 µg/mL (≈ 10.4 µM) | 6.25 µg/mL (≈ 10.4 µM) | 25 µg/mL (≈ 41.6 µM) | 6.25 µg/mL (≈ 10.4 µM)
10 | COC(=O)/C(C)=C/c1ccc(Oc2ccc(N/C(=N/c3cccc(Cl)c3)NCCCNc3ccnc4cc(Cl)ccc34)cc2)cc1 | 78.2 nM | 71.4 nM | 21.9 | 6.25 µg/mL (≈ 9.55 µM) | > 50 µg/mL | 6.25 µg/mL (≈ 9.55 µM) | 50 µg/mL (≈ 76.4 µM) | > 50 µg/mL | > 50 µg/mL | 50 µg/mL (≈ 76.4 µM) | 50 µg/mL (≈ 76.4 µM) | > 50 µg/mL | 50 µg/mL (≈ 76.4 µM)
11 | COC(=O)/C(C)=C/c1ccc(Oc2ccccc2N/C(=N/c2ccc(Cl)cc2)NCCCCNc2ccnc3cc(Cl)ccc23)cc1 | 96.8 nM | 41.2 nM | 102 | 12.5 µg/mL (≈ 18.7 µM) | > 50 µg/mL | 1.56 µg/mL (≈ 2.33 µM) | > 50 µg/mL | 50 µg/mL (≈ 74.8 µM) | 50 µg/mL (≈ 74.8 µM) | 6.25 µg/mL (≈ 9.35 µM) | 6.25 µg/mL (≈ 9.35 µM) | > 50 µg/mL | > 50 µg/mL
